Source: patent US20250215026A1, “Deuterated Compounds, Compositions and Uses” (BioJive LLC, priority 2018, published 2025)

Assays:
[1] = Liposome leakage of sulforhodamine B by fluorescence correlation spectroscopy, +/- Fe2+/ascorbate
Experimental: The equipment set up and peak intensity analysis was conducted as described in Perevoshchikova, et al., Biochim. Biophys. Acta 1778, 2182-2190 (2008). Briefly, fluorescence excitation and detection utilized a Nd: YAG solid state laser with a 532-nm beam attached to an Olympus IMT-2 epifluorescent inverted microscope equipped with a 40×, NA 1.2 water immersion objective (Carl Zeiss, Jena, Germany). The fluorescence light passed through an appropriate dichroic beam splitter and a long-pass filter and was imaged onto a 50-μm core fiber coupled to an avalanche photodiode (SPCM-AQR-13-FC, PerkinElmer Optoelectronics, Vaudreuil, Quebec, Canada). The signal from an output was sent to a PC using a fast interface card (Flex02-01D/C, Correlator.com, Bridgewater, NJ). The data acquisition time was 30 s. The fluorescence was recorded from the confocal volume located at about 50 μm above the coverslip surface with 50 μL of the buffer solution added. Most of the data were collected under the conditions of stirring a suspension by a paddle-shaped 3-mm plastic bar rotated at 600 rpm. To calibrate the setup, the fluorescence autocorrelation function of Rhodamine 6G solution was recorded. Assuming the diffusion coefficient of the dye to be 2.5×10^−6 cm^2/s, the value of the confocal radius is circa ω=0.42 μm. The correlated fluorescence emission signals were fitted to the three-dimensional autocorrelation function as described in Hess, et al., Biochemistry 41; 697-705 (2002).
SRB-loaded liposomes were suspended in an aqueous solution of Fe^2+ and ascorbate […], prepared from lipid mixtures containing linoleoyl stearoyl phosphatidylcholine (H-Lin-PC) as the bulk lipid (unless otherwise stated) with various contents of a series of 1-stearoyl phosphatidylcholines, including compounds of Formula (II). To measure G(τ→0) more precisely, the FCS experiments were performed under stirring conditions. […] The reduction of the G(τ→0) amplitude apparently reflected an increase in the number of fluorescent particles due to SRB release from liposomes. […]

[2] = Incorporation of orally dosed D-DHA into retina by nanoSIMS; assay type: in vivo, mouse; settings: after three days of dosing
Experimental: In this example, D-DHA (20 mg; 1 mg/ul) was administered orally as ethyl ester to a wild-type mouse by gavage for three consecutive days in addition to unrestricted regular DHA-free rodent diet. Mouse retina was harvested and then fixed and embedded in resin. Retinal sections were analyzed with nanoscale secondary ion mass spectrometry (nanoSIMS) to determine the incorporation rates of D-DHA into retinal cells by measuring the relative enrichment of DHA-bound deuterium over its natural tissue abundance. The D-DHA/DHA substitution rate of natural DHA in the outer segments was calculated by the ratio of increased deuterium abundance vs. total hydrogen contribution of DHA in outer segments.

In the case of `[2H]C([2H])(/C=C\CCCCC)/C=C\CCCCCCCC(=O)O[C@H](COC(=O)CCCCCCCCCCCCCCCCC)COP(=O)([O-])OCC[N+](C)(C)C` [D2-Lin-PC, 1-stearoyl-2-(11,11-D2-linoleyl)-sn-glycero-3-phosphatidylcholine], the “effect of incubation with Fe/ascorbate on G(τ→0) amplitude of SRB” value ([1]; 10% D2-Lin-PC in H-Lin-PC, 0, 10, 20 min, FIG. 1A) is reported as “led to a decrease in the G(τ→0) amplitude”, the “effect of incubation with Fe2+/ascorbate on G(τ→0) amplitude of SRB” value ([1]; 25% D2-Lin-PC in H-Lin-PC, FIG. 1B) is reported as “did not reduce the amplitude of G(τ→0) or reduced it to a very low extent” and the “difference between extent of liposome leakage α with and without Fe2+/ascorbate” value ([1]; 100% of the deuterated lipid, FIG. 2A) is reported as “very low”. For the same compound, the “relative strength of protection of H-Lin-PC bulk: % in bilayer” value (shortened to “relative strength … % in bilayer”) (FIG. 6) was 25% and the “% of deuterated lipid giving very low level of ΔA234 and very low difference in α +/- Fe2+/ascorbate” value (t=10 min, in H-Lin-PC, FIG. 3) was ≥ 20%.
In the case of `[2H]C([2H])(/C=C\CC)/C=C\C/C=C\CCCCCCCC(=O)O[C@H](COC(=O)CCCCCCCCCCCCCCCCC)COP(=O)([O-])OCC[N+](C)(C)C` [D2-Lnn-PC, 1-stearoyl-2-(14,14-D2-linolenyl)-sn-glycero-3-phosphatidylcholine], the “percentage needed for protection of H-Lin-PC matrix, relative to D4-Lnn-PC” value (FIG. 6) is reported as “about twofold as high as that of D4-Lnn-PC”.
For `[2H]C([2H])(/C=C\CC)/C=C\C([2H])([2H])/C=C\CCCCCCCC(=O)O[C@H](COC(=O)CCCCCCCCCCCCCCCCC)COP(=O)([O-])OCC[N+](C)(C)C` [D4-Lnn-PC, 1-stearoyl-2-(11,11,14,14-D4-linolenyl)-sn-glycero-3-phosphatidylcholine], the “relative strength … % in bilayer” value (FIG. 6) was 17%.
For `[2H]C([2H])(/C=C\CCCCC)/C=C\C([2H])([2H])/C=C\C([2H])([2H])/C=C\CCCC(=O)O[C@H](COC(=O)CCCCCCCCCCCCCCCCC)COP(=O)([O-])OCC[N+](C)(C)C` [D6-Ara-PC, 1-stearoyl-2-(7,7,10,10,13,13-D6-arachidonoyl)-sn-glycero-3-phosphatidylcholine], the “relative strength … % in bilayer” value (FIG. 6) was 12%.
In the case of `[2H]C([2H])(/C=C\CC)/C=C\C([2H])([2H])/C=C\C([2H])([2H])/C=C\C([2H])([2H])/C=C\CCCC(=O)O[C@@H](COC(=O)CCCCCCCCCCCCCCCCC)COP(=O)([O-])OCC[N+](C)(C)C` [D8-EPA-PC, 1-stearoyl-2-(7,7,10,10,13,13,16,16-D8-eicosapentaenoyl)-sn-glycero-3-phosphatidylcholine], the “relative strength … % in bilayer” value (FIG. 6) is reported as 10%.
For `[2H]C([2H])(/C=C\CC)/C=C\C([2H])([2H])/C=C\C([2H])([2H])/C=C\C([2H])([2H])/C=C\C([2H])([2H])/C=C\CCC(=O)O[C@H](COC(=O)CCCCCCCCCCCCCCCCC)COP(=O)([O-])OCC[N+](C)(C)C` [D10-DHA-PC, 1-stearoyl-2-(6,6,9,9,12,12,15,15,18,18-D10-docosahexaenoyl)-sn-glycero-3-phosphatidylcholine], the “protection, fold stronger than for D6-Ara” value (diene conjugates assay, H-Lin-PC matrix) was 10 fold, the “level suppressing lipid autooxidation, diene conjugates assay” value (in the H-Lin-PC matrix, FIG. 6) was ≤ 1% and the “protection from oxidative stress compared to other deuterated lipids” value (undeuterated H-Lin-PC matrix, FIG. 6) was “substantially enhanced protection from oxidative stress”.
With `[2H]C([2H])(/C=C\CC)/C=C\C([2H])([2H])/C=C\C([2H])([2H])/C=C\C([2H])([2H])/C=C\C([2H])([2H])/C=C\CCC(=O)OCC` [D-DHA, 6,6,9,9,12,12,15,15,18,18-D10-docosahexaenoic acid ethyl ester] the “level reached in retinal tissues after oral dosing” value [2] was “above 1%”.
